Experimental data reported in patent US9089565B2, “Compositions and methods for causing neurite outgrowth” (MEDICAL RESEARCH COUNCIL, priority 2009, dated 2015).

Target: T1, NgR1 (Homo sapiens, UniProt Q9BZR6)
T1 construct: The cDNAs of NgR1 (NM 023004, Nt. 184-1543); expressed in transfected cells; host or cells: COS7
T1 sequence (Q9BZR6 27-447): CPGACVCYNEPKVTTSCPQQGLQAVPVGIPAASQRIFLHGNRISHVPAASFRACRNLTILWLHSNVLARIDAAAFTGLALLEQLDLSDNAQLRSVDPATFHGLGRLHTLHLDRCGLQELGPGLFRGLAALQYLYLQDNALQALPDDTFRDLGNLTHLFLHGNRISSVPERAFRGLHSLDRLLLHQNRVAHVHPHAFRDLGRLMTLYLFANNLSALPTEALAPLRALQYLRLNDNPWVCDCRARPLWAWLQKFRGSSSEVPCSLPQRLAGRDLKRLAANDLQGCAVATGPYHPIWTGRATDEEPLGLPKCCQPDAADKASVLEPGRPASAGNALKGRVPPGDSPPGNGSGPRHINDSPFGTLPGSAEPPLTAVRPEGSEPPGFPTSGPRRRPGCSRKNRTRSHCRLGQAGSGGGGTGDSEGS
Experiment: Binding of Nogo-66 fragment (Nogo-GFP) to COS7 cells over-expressing NgR1
Details: wild type NgR1
Procedure: FIG. 3. CK2 phosphorylates NgR1, and inhibits binding of the myelin-associated proteins to NgR1. (A) Myc-tagged wild type, 281S/A or 281S/D mutant NgR1 were over-expressed in COS7 cells. The over-expressed cells were incubated with either the combination of ATP and CK2, or NEP1-40 for 30 min at 37° C. After washing with PBS, cells were incubated with Hisx6-tagged Nogo-GFP for 3 hours at 4° C. The cells were fixed and immunofluorescence was performed with anti-Myc and anti-GFP antibodies. (B) COS7 cells over-expressing Myc-tagged wild type NgR1 were treated as described in (A). Proteins were extracted and the Myc-tagged NgR1 was immunoprecipitated with anti-Myc antibody. Co-precipitated Hisx6-tagged Nogo-GFP was detected by anti-GFP antibody. (C) Cell surface proteins in NgR1-overexpressing COS7 cells were labelled with biotin. The biotinylated proteins were fractionated and analysed by SDS-PAGE. Biotinylated NgR1-Myc was detected with anti-Myc. antibody. (D) COS7 cells over-expressing either wild type NgR1-Myc or 281S/A mutant NgR1-Myc were incubated with ã-^32P-ATP in the presence or absence of CK2. Myc-tagged proteins were immunoprecipitated and analysed with SDS-PAGE. Proteins were blotted onto a PVDF membrane and the membrane was exposed to X-ray film to detect incorporated ^32P. After autoradiography, the membrane was used for immunoblotting with anti-Myc antibody. (E and F) COS7 cells over-expressing Myc-tagged wild type, 281S/A or 281S/D mutant NgR1, were treated as described in (A). After washing with PBS, cells were incubated with either His-tagged OMgp (E) or HA-tagged MAG (F) for 3 hours at 4° C. […]
After treatment with or without CK2, COS7 cells over-expressing wild type or mutant NgR were incubated with Hisx6 tagged Nogo-GFP (10 μg/ml), HA-MAG (50 μg/ml) or Hisx6 tagged OMgp (10 μg/ml) in PBS for 3 hours at 4° C. […] Biotinylated proteins were precipitated with streptavidin beads and were analysed by SDS-PAGE. Each sample fractionated from 5×10^6 cells was analysed by SDS-PAGE. […]

Compound	interaction of Nogo-66 fragment with over-expressed NgR1, immunoprecipitation (ATP or CK2 alone)	binding of the Nogo-66 fragment, immunofluorescence (pre-treatment 30 min (CK2 with ATP, or NEP1-40))
Nc1ncnc2c1ncn2[C@@H]1O[C@H](COP(=O)(O)OP(=O)(O)OP(=O)(O)O)[C@@H](O)[C@H]1O [ATP]	failed to inhibit the interaction	–
NEP1-40: a competitive inhibitor of Nogo-66 binding to NgR1 (MEDLDQSPLVSSSDSPPRPQPAFKYQFVREPEDEEEEEEE; Nogo-66 residues 1-40; UniProt Q9NQC3 1-40, looked up, fragment) [reference compound]	–	inhibited binding
